Assay in all cases: cells
What all share (parameters): CellTiter-Glo 2.0 luminescence proliferation/viability assay, single agents, human tumour cell line panel
Background: ATP-based viability assays read luminescence as a measure of living cells.

One experiment has as its system C106. Conditions: 96 h; single agent; read-out: IC50 SMACm. The gist of the method:
(§1)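 Human tumour cell lines were seeded into assay plates and held at 37°C with 5% CO2 for twenty-four hours, then exposed in triplicate to rising concentrations of the SMAC mimetic, from 4.5 nM to 10 μM, with DMSO as control. After 96 h, viability was read as CellTiter-Glo2.0 luminescence to derive single-agent IC50 values.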

A further experiment relates to C84. Conditions: 96 h; single agent; read-out: IC50 SMACm. The gist of the method: as §1
A further experiment deals with COLO-741. Conditions: Homo sapiens, COLO-741, 96 h; single agent; read-out: IC50 SMACm. The procedure, abridged: as §1
A further experiment relates to COLO94H. Conditions: 96 h; single agent; read-out: IC50 SMACm. The procedure, abridged: as §1
In a further experiment the test system is Calu-6. The following applies: Homo sapiens, Calu-6, 96 h; single agent; read-out: IC50 SMACm. The procedure, abridged:
as §1

The subject of a further experiment is GCIY. The following applies: Homo sapiens, GCIY, 96 h; single agent; read-out: IC50 SMACm. The procedure, abridged: as §1
Another experiment has as its system HCC95. Conditions: Homo sapiens, HCC95, 96 h; single agent; read-out: IC50 SMACm. The gist of the method:
as §1

The subject of a further experiment is HUTU-80. Conditions: Homo sapiens, HuTu80, 96 h; single agent; read-out: IC50 SMACm. The procedure, abridged: as §1
In another experiment the test system is LU-99. Conditions: Homo sapiens, Lu-99, 96 h; single agent; read-out: IC50 SMACm. The procedure, abridged: as §1
The test system of a further experiment is LoVo. The following applies: Homo sapiens, LoVo, 96 h; single agent; read-out: IC50 SMACm. The gist of the method: as §1
In another experiment the test system is NCI-H1975. Conditions: Homo sapiens, NCI-H1975, 96 h; single agent; read-out: IC50 SMACm. The gist of the method:
as §1

For the next experiment, the system named is NCI-H2122. The following applies: Homo sapiens, NCI-H2122, 96 h; single agent; read-out: IC50 SMACm. The gist of the method:
as §1

The test system of a further experiment is RKO. The following applies: Homo sapiens, RKO, 96 h; single agent; read-out: IC50 SMACm. The gist of the method: as §1
A further experiment relates to SNU283. The following applies: 96 h; single agent; read-out: IC50 SMACm. The procedure, abridged: as §1
In another experiment the test system is SW480. Conditions: Homo sapiens, SW480, 96 h; single agent; read-out: IC50 SMACm. The procedure, abridged: as §1

For the molecule `CN[C@@H](C)C(=O)Nc1ccc(-c2c(-c3cccnc3OC)nc3cc(C)ccn23)c(C#Cc2ccc3c(C)nccc3c2)n1` [SMACm, BI 891065], the concentration for half-maximal inhibition (IC50) (as a rule, the midpoint of a concentration-inhibition curve) in the experiment on C106 was 1.6 µM; in the experiment on C84, 3.35 µM; with COLO-741 it was 0.831 µM; with COLO94H, 4.69 µM; in the experiment on Calu-6 it was 4.93 µM; in the experiment on GCIY, 4.01 µM. In addition, the IC50 in the experiment on HCC95 amounted to 6.09 µM; with HUTU-80, 3.31 µM; in the experiment on LU-99, 7.37 µM; in the experiment with LoVo it was 4.76 µM; in the experiment with NCI-H1975, 4.63 µM; in the experiment on NCI-H2122, 5.15 µM. For the same molecule, the values for the half-inhibitory concentration (IC50) in the experiment with RKO, in the experiment on SNU283 and in the experiment on SW480 were 5.07 µM, 3.78 µM and 5.81 µM, respectively.

For the origin of these results see paper PMC12490239, “Combining BET inhibition with SMAC mimetics restricts tumor growth and triggers immune surveillance in preclinical cancer models” (Cell Reports Medicine, 2025).
